Several values for one entry are separate records, joined by “and”; a condition that tells them apart may be missing. Equal values may be shown once. Read-outs that look alike come from different tables or passages of the source.
What was measured:
[1] = tested on: TPCs; settings: read-out: IC50 inhibition of TPCs; cited from earlier work
[2] = tested on: lysosomal TPC2; settings: cited from earlier work
[3] = biological target: T1, human TPC2^PM Y312A mutant (Homo sapiens, UniProt Q8NHX9, L11A/L12A/Y312A); test: Inside-out patch-clamp, PI(3,5)P2-activated TPC2^PM Y312A; assay type: cell-based; settings: for current, trace of PI103 on Y312A of TPC2 channel: successive trace points
T1 construct: FLAG (C); V5 (C); expressed in transfected cells; host or cells: HEK293
Protocol: (§1) After 24 h of transfection, human TPC1^PM or TPC2^PM channel currents were acquired at room temperature using an EPC-10 amplifier and PatchMaster software (HEKA) or a MultiClamp 700B amplifier and pCLAMP software (Axon Instruments). […] Patch pipettes were polished with a resistance of 2–3 MΩ for recording. Similarly, for whole-cell recording to allow inhibitor application on the extracellular side, the K^+-based solution was used as the pipette solution, and the Na^+-based solution was used in the bath.

[4] = biological target: T2, human TPC2^PM H699A mutant (Homo sapiens, UniProt Q8NHX9, H699A/L11A/L12A); test: Inside-out patch-clamp, PI(3,5)P2-activated TPC2^PM H699A; assay type: cell-based; settings: for current, trace of PI103 on H699A of TPC2 channel: voltage -1.20E+02, successive trace points
T2 construct: FLAG (C); V5 (C); expressed in transfected cells; host or cells: HEK293
Protocol: as §1

[5] = biological target: T3, human TPC2 L11A/L12A (TPC2^PM) (Homo sapiens, UniProt Q8NHX9, L11A/L12A); test: Inside-out patch-clamp of PI(3,5)P2-induced TPC2^PM Na+ currents (WT pore); assay type: cell-based; settings: for current, trace of PI103 on WT TPC2 channel: voltage -1.20E+02, successive trace points
T3 construct: FLAG (C); V5 (C); expressed in transfected cells; host or cells: HEK293
Protocol: as §1
Dose curves were fitted by the Hill logistic equation. τon and τoff were acquired from singe exponential fitting.

[6] = biological target: T4, human TPC2^PM Y312A/H699A mutant (Homo sapiens, UniProt Q8NHX9, H699A/L11A/L12A/Y312A); test: Inside-out patch-clamp, PI(3,5)P2-activated TPC2^PM Y312A/H699A; assay type: cell-based; settings: 0.3 μM PI(3,5)P2 alone, trace, voltage -1.20E+02
T4 construct: FLAG (C); V5 (C); expressed in transfected cells; host or cells: HEK293
Protocol: as §1

[7] = biological target: T5, human TPC2 (Homo sapiens, UniProt Q8NHX9); test: Imaging of NAADP-evoked Ca2+ elevation (GCaMP6f) after microinjection in TPC2-expressing HEK293 cells; assay type: cell-based
T5 construct: FLAG (C); V5 (C); expressed in transfected cells; host or cells: HEK293
Protocol: Ca^2+ imaging analysis of NAADP-evoked Ca^2+ elevation was performed as we recently described. Briefly, cells were co-transfected with cDNA constructs of human TPC2 and the Ca^2+ reporter GCaMP6f, and the transfected cells were identified by GCaMP6f fluorescence. Fluorescence was monitored with an Axio Observer A1 microscope equipped with an AxioCam MRm digital camera and ZEN Blue 2 software containing a physiology module (Carl Zeiss) at a sampling frequency of 2 Hz. Cell injection was performed with a FemtoJet microinjector (Eppendorf). The pipette solution contained 110 mM KCl, 10 mM NaCl, and 20 mM Hepes (pH 7.2) supplemented with Dextran (10,000 MW)-Texas Red (0.3 mg/ml) and NAADP (100 nM) or vehicle. When needed, 10 µM YM201626 or apilimod at was added to the pipette solution. […] To minimize interference by contaminated Ca^2+, the pipette solution was always treated with Chelex 100 resin (#C709, Sigma-Aldrich) immediately before use. Microinjection (0.5 s at 150 hPa) was made ~30 s after pipette tip insertion into cells. […] Successful injection was verified by fluorescence of the co-injected Texas Red. Elevation in intracellular Ca^2+ concentration was reported by a change in fluorescence intensity measured as ΔF/F0, calculated from NAADP microinjection-induced maximal changes in fluorescence (ΔF at the peak) divided by the fluorescence immediately before microinjection (F0).

[8] = biological target: T3, human TPC2 L11A/L12A (TPC2^PM); test: Whole cell patch-clamp of NAADP (microinjection)-induced TPC2^PM currents in HEK293 cells; assay type: cell-based; set-up: averaged NAADP-induced whole cell current trace: unit not given here
Protocol: Whole cell patch-clamp recording of the NAADP (microinjection)-induced TPC2^PM currents was performed as we reported. […] The cells were visualized under an infrared differential interference contrast optics microscope (Zeiss). Currents were recorded by voltage ramps from −120 to +120 mV over 400 ms for every 2 s with a holding potential of 0 mV. After a whole cell recording configuration was achieved, an injection pipette was inserted into the cell and the baseline of the whole cell current was recorded. Microinjection of NAADP was performed as above in imaging analysis of NAADP-evoked Ca^2+ release. The NAADP-induced currents were obtained by subtraction of the baseline from NAADP injection-induced currents.

[9] = tested on: Ebola virus; settings: read-out: IC50 virus entry; cited from earlier work

T3 sequence (Q8NHX9 whole entry L11A/L12A): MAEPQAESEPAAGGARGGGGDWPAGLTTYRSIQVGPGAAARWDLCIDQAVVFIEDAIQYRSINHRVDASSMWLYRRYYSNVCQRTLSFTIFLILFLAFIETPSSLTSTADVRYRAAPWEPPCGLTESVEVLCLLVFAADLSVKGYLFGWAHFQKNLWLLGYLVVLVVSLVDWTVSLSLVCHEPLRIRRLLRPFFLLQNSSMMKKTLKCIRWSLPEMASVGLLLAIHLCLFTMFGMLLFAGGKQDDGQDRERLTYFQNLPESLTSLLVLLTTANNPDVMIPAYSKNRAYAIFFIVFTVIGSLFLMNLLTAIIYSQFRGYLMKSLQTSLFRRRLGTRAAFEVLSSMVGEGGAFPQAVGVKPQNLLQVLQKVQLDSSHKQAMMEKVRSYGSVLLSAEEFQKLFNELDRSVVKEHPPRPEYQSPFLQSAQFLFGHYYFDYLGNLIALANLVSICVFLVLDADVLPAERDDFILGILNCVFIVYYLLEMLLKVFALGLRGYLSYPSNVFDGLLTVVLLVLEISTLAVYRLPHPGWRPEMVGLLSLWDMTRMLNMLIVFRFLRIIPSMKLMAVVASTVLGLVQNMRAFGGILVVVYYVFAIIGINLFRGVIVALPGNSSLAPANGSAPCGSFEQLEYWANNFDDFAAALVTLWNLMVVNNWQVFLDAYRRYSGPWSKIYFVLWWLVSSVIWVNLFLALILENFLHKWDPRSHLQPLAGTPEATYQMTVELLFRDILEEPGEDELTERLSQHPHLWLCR
T2 sequence (Q8NHX9 whole entry L11A/L12A/H699A): as the sequence (Q8NHX9 whole entry L11A/L12A) above, with H699A counted along it
T1 sequence (Q8NHX9 whole entry L11A/L12A/Y312A): as the sequence (Q8NHX9 whole entry L11A/L12A) above, with Y312A counted along it
T5 sequence (Q8NHX9 whole entry): as the sequence (Q8NHX9 whole entry L11A/L12A) above, with A11L, A12L counted along it
T4 sequence (Q8NHX9 whole entry L11A/L12A/Y312A/H699A): as the sequence (Q8NHX9 whole entry L11A/L12A) above, with Y312A, H699A counted along it

O=C1C[C@@H](c2ccc(O)cc2)Oc2cc(O)cc(O)c21 [Naringenin]
IC50 [1]: ~200 µM

COc1ccc([C@H]2N[C@H](C(=O)O)Cc3c2[nH]c2ccccc32)cc1CN1CCN(c2ccccc2F)CC1 [Ned-19]
inhibition of lysosomal TPC2 activity ([2]; 200 µM): ~ 75%

Oc1cccc(-c2nc(N3CCOCC3)c3oc4ncccc4c3n2)c1 [PI103]
current, trace of PI103 on Y312A of TPC2 channel ([3]; 0.3 μM PI(3,5)P2 + 2.0 μM PI103, voltage -1.20E+02): -3.13E-09 A | current, trace of PI103 on Y312A of TPC2 channel ([3]; 0.3 μM PI(3,5)P2 + 5.0 μM PI103, voltage -1.20E+02): -1.87E-09 A | current, trace of PI103 on Y312A of TPC2 channel ([3]; 0.3 μM PI(3,5)P2 + 20.0 μM PI103, voltage -1.20E+02): -1.61E-09 A | current, trace of PI103 on H699A of TPC2 channel ([4]; 0.3 μM PI(3,5)P2 + 0.4 μM PI103): -4.01E-09 A | current, trace of PI103 on H699A of TPC2 channel ([4]; 0.3 μM PI(3,5)P2 + 20.0 μM PI103): -3.66E-09 A | current, trace of PI103 on H699A of TPC2 channel ([4]; 0.3 μM PI(3,5)P2 + 50.0 μM PI103): -3.37E-09 A | current, trace of PI103 on WT TPC2 channel ([5]; 0.3 μM PI(3,5)P2 + 0.2 μM PI103): -1.97E-09 A | current, trace of PI103 on WT TPC2 channel ([5]; 0.3 μM PI(3,5)P2 + 0.5 μM PI103): -1.21E-09 A

CCCCCCCC(=O)OC[C@H](COP(=O)(O)OC1[C@H](O)[C@H](OP(=O)(O)O)C(O)[C@H](OP(=O)(O)O)[C@H]1O)OC(=O)CCCCCCC (some centres unmarked) [PI(3,5)P2, phosphatidylinositol 3,5-bisphosphate]
current(A) ([3]; Y312A TPC2, 0.3 μM PI(3,5)P2 alone, trace, voltage -1.20E+02): -2.83E-09 A | current(A) [6]: -4.54E-09 A | deactivation rate τoff on wash-off ([5]; 1.0 μM PI(3,5)P2, n = 7): 20.8 ± 0.9 s | activation rate τon of human TPC2 channels ([5]; 1.0 μM PI(3,5)P2 from cytosolic side, n = 8): 9.0 ± 0.5 s | kinetics (Tau) of TPC2PM currents, mean value ([5]; PI(3,5)P2 wash on): 9.035 | Tau of TPC2PM currents, PI(3,5)P2 wash on after Y201636, single cells ([5]; individual cells 1-5, Fig 3D): 48.718 and 63.746 and 69.896 and 56.91 and 53.316 | Tau of TPC2PM currents, PI(3,5)P2 wash off, single cells ([5]; individual cells 1-7, Fig 3D): 21.372 and 18.6234 and 21.6704 and 18.1982 and 20.854 and 19.4692 and 25.31 | Tau of TPC2PM currents, PI(3,5)P2 wash on, single cells ([5]; individual cells 1-8, Fig 3D): 8.4824 and 9.9858 and 7.6828 and 7.7804 and 8.8206 and 10.9364 and 11.3272 and 7.265 | Averaged kinetics (Tau) of TPC2PM currents, PI(3,5)P2 wash on after YM201636, mean value ([5]; mean, 5 cells, Fig 3D): 11.9903 | Averaged kinetics (Tau) of TPC2PM currents, PI(3,5)P2 wash off, mean value ([5]; mean, 7 cells, Fig 3D): 20.7853 | Averaged kinetics (Tau) of TPC2PM currents, PI(3,5)P2 wash on, mean value ([5]; mean, 8 cells, Fig 3D): 9.035

Oc1cccc(-c2nc(N3CCOCC3)c3oc4ncccc4c3n2)c1 [PI-103]
IC50 [3]: 13.9 µM | channel's blockade in H699A mutant ([4]; 0.3 μM PI(3,5)P2, inside-out): largely abolished | fold higher IC50 than that of YM201636 ([5]; WT TPC2^PM): 4 fold | IC50 ([5]; read-out: IC50 for inhibition of PI(3,5)P2-induced human TPC2 channel Na+ currents): 0.64 µM

COc1cc2c(cc1Oc1ccccc1)C(Cc1ccc(Oc3ccccc3)cc1)N(C)CC2 (centres unmarked) [SG-094]
inhibition of (lysosomal) TPC2 currents ([2]; 10 µM): ~ 75%

Cc1cccc(/C=N/Nc2cc(N3CCOCC3)nc(OCCc3ccccn3)n2)c1 [apilimod]
reduction of the NAADP-evoked Ca2+ elevation ([7]; 1 µM microinjected together with NAADP (100 nM), HEK293 cells): largely unaffected | NAADP-evoked calcium elevation (change in Ca2+ indicator fluorescence), individual cells ([7]; Fig 1B source data, 1 µM microinjected with NAADP): 2.593 and 3.9665 and 6.13 and 1.0864 and 2.248 and 3.0742 | inhibition of the NAADP-induced TPC2^PM currents ([8]; 1 µM in bath solution ~10 min, whole cell, −120 mV): little effect | averaged NAADP-induced whole cell current trace ([8]; 1 uM, Voltage -119.76): -0.4148 | averaged NAADP-induced whole cell current trace ([8]; 1 uM, Voltage -119.82): -0.4172 | averaged NAADP-induced whole cell current trace ([8]; 1 uM, Voltage -119.88): -0.4198 | averaged NAADP-induced whole cell current trace ([8]; 1 uM, Voltage -119.94): -0.4267 | averaged NAADP-induced whole cell current trace ([8]; 1 uM, Voltage -120, Fig 1C source data): -0.4289 | I, current density of NAADP-induced whole cell TPC2^PM currents, individual cells ([8]; 1 uM, −120 mV, Fig 1D source data): 94.6904 pA/pF and 47.5492 pA/pF and 12.9726 pA/pF and 46.7536 pA/pF and 31.7662 pA/pF and 23.2025 pA/pF

COc1ccc2cc1Oc1ccc(cc1)C[C@H]1c3cc(c(OC)cc3CCN1C)Oc1c(OC)c(OC)cc3c1[C@H](C2)N(C)CC3 [tetrandrine]
inhibition of (lysosomal) TPC2 currents ([2]; 0.5 µM): 60% | inhibition of (lysosomal) TPC2 currents ([2]; 10 µM): 54% and 50–60% | IC50 [9]: 0.055 µM
